Some test systems named below: 786-0 renal; CCRF-CEM leukemia; HS 578T breast; KM12 colon; M14 melanoma; MALME-3M melanoma; MCF7 breast; MDA-MB-435; OVCAR-8 ovarian; RXF 393 renal; SF-268 CNS; SK-MEL-5 melanoma; T-47D breast; UACC-257 melanoma; UO-31 renal.
What all share (experiment): NCI anticancer screen, dose series, 48 h

9 molecules from PubChem BioAssay (NCI) can be followed below.

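Dose response: 5 concentrations. Exposure: 48 h. Format: 96-well plates. Endpoint: linear interpolation; highest concentration if not reached. At the TGI there is no net growth.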 Where only a bound is given, the exact number is not on record here.

Consider `Nc1ccc2c(SCc3ccc([N+](=O)[O-])cc3)c3ccccc3nc2c1`, for which the TGI in the test with 786-0 renal was 20.1 µM; with CCRF-CEM leukemia, 5.15 µM; with HS 578T breast it was 48 µM; with KM12 colon, 27 µM; with M14 melanoma it was 24.1 µM; in the test with MALME-3M melanoma, 26.8 µM. In addition, the TGI was found to be 27.6 µM in the test with MCF7 breast; 33.7 µM with MDA-MB-435; 26.7 µM in the test on OVCAR-8 ovarian; 42.3 µM with RXF 393 renal; 30.8 µM in the test with SF-268 CNS; 28.4 µM in the test with SK-MEL-5 melanoma. Moreover, the TGI worked out at 22.6 µM in the test on T-47D breast, 33.6 µM in the test with UACC-257 melanoma and 27.2 µM in the test on UO-31 renal.

On to `Nc1cccc(/C=C/C(=O)N2CCN(CCOC(c3ccccc3)c3ccccc3)CC2)c1`, for which the TGI in the test on 786-0 renal is 30.3 µM; with CCRF-CEM leukemia it was 26.4 µM; with HS 578T breast, 45.6 µM; in the test with KM12 colon, 30.7 µM; with M14 melanoma, 26 µM; in the test with MALME-3M melanoma it was 31.2 µM. Besides, the TGI in the test with MCF7 breast stood at 31.5 µM; in the test on MDA-MB-435, 29.8 µM; in the test with OVCAR-8 ovarian it was 35.6 µM; with RXF 393 renal, 28.7 µM; with SF-268 CNS, 35 µM; with SK-MEL-5 melanoma, 29.4 µM. The TGI in the test on T-47D breast stood at 33.1 µM; with UACC-257 melanoma, 31.5 µM; in the test with UO-31 renal, 30.5 µM.

For `C[C@H](NC(=O)c1ccc(CNC(=O)/C=C/c2cccc(Oc3ccccc3)c2)cc1)c1ccccc1`, the TGI in the test on 786-0 renal, with CCRF-CEM leukemia, in the test on HS 578T breast, in the test on KM12 colon, with M14 melanoma and in the test on MALME-3M melanoma was > 100 µM each time. The TGI is > 100 µM with MCF7 breast; > 100 µM with MDA-MB-435; > 100 µM with OVCAR-8 ovarian; 80.3 µM in the test on RXF 393 renal; > 100 µM in the test on SF-268 CNS; > 100 µM in the test with SK-MEL-5 melanoma. Besides, the TGI in the test with T-47D breast, in the test with UACC-257 melanoma and in the test on UO-31 renal was > 100 µM throughout.

Consider `CCOC(=O)Cn1c(=O)c2nc(SC)sc2n(CC)c1=S`, for which the TGI with 786-0 renal was 0.32 µM; in the test with CCRF-CEM leukemia, > 100 µM; in the test with HS 578T breast, 95.8 µM; in the test on KM12 colon, > 100 µM; in the test on M14 melanoma, 17.4 µM; with MALME-3M melanoma, > 100 µM. Moreover, the TGI with MCF7 breast was > 100 µM; in the test on MDA-MB-435, 3.2 µM; with OVCAR-8 ovarian, > 100 µM; with RXF 393 renal it was > 100 µM; with SF-268 CNS it was > 100 µM; in the test with SK-MEL-5 melanoma, > 100 µM. The values for the TGI with T-47D breast, with UACC-257 melanoma and with UO-31 renal were > 100 µM, > 100 µM and 28.8 µM, respectively.

Regarding `CN(C)CCN(C)c1ccc2c(=O)n(CCN(C)C)c(=O)n3c4ccccc4c(=O)c1c23`, the TGI is 10.2 µM with 786-0 renal; 0.293 µM with CCRF-CEM leukemia; 8.65 µM in the test with HS 578T breast; 8.08 µM with KM12 colon; 6.68 µM in the test with M14 melanoma; 3 µM in the test with MALME-3M melanoma. Moreover, the TGI stood at 11.3 µM in the test on MCF7 breast; 3.18 µM in the test on MDA-MB-435; 7.15 µM with OVCAR-8 ovarian; 11.2 µM in the test on RXF 393 renal; 0.559 µM in the test with SF-268 CNS; 2.71 µM with SK-MEL-5 melanoma. For the same molecule, the TGI in the test with T-47D breast was 9.77 µM; with UACC-257 melanoma, 4.73 µM; in the test on UO-31 renal, 2.62 µM.

Turning to `NC(=O)c1cc2ccc(O)cc2oc1=Nc1ccccc1`, the TGI in the test with 786-0 renal, in the test on CCRF-CEM leukemia, with HS 578T breast, in the test with KM12 colon, in the test on M14 melanoma and with MALME-3M melanoma was > 100 µM each time. In addition, the TGI in the test on MCF7 breast was > 100 µM; in the test with MDA-MB-435, > 100 µM; in the test on OVCAR-8 ovarian, > 100 µM; in the test on RXF 393 renal, > 100 µM; in the test on SF-268 CNS, > 100 µM; in the test with SK-MEL-5 melanoma it was 69 µM. Besides, the TGI in the test with T-47D breast was 66.1 µM; with UACC-257 melanoma, > 100 µM; in the test on UO-31 renal it was > 100 µM.

With `Cc1ccc(/C=C/c2nnc(N/N=C/c3ccc4c(c3)OCO4)[nH]c2=O)cc1`, the TGI is 27.9 µM in the test on 786-0 renal; 45.4 µM with CCRF-CEM leukemia; 34.6 µM with HS 578T breast; 46.9 µM in the test on KM12 colon; > 100 µM with M14 melanoma; > 100 µM in the test on MALME-3M melanoma. Moreover, the TGI in the test with MCF7 breast is 51.2 µM; in the test on MDA-MB-435, > 100 µM; with OVCAR-8 ovarian, 34.7 µM; with RXF 393 renal it was > 100 µM; in the test on SF-268 CNS, 33.9 µM; with SK-MEL-5 melanoma it was > 100 µM. The TGI in the test with T-47D breast, with UACC-257 melanoma and in the test with UO-31 renal was > 100 µM each time.

In the case of `C=CCC1(OC(C)=O)C2OC(=O)C1(O)OCC2O` (stereo not given), the TGI in the test on 786-0 renal, in the test with CCRF-CEM leukemia, in the test with HS 578T breast, with KM12 colon, in the test on M14 melanoma and in the test on MALME-3M melanoma was > 100 µM throughout. Besides, the TGI in the test on MCF7 breast, in the test with MDA-MB-435, in the test with OVCAR-8 ovarian, in the test on RXF 393 renal, in the test on SF-268 CNS and in the test on SK-MEL-5 melanoma was > 100 µM in each case. Moreover, the TGI in the test with T-47D breast, in the test with UACC-257 melanoma and in the test on UO-31 renal was > 100 µM each time.

`CC(C)=CCC/C(=C/CC/C(=C\CCc1ccoc1)C(=O)O)C(=O)O`: the TGI with 786-0 renal, in the test on CCRF-CEM leukemia, with HS 578T breast, in the test on KM12 colon, in the test with M14 melanoma and in the test on MALME-3M melanoma was > 100 µM in each case. Moreover, the TGI with MCF7 breast, with MDA-MB-435, with OVCAR-8 ovarian, in the test with RXF 393 renal, with SF-268 CNS and in the test with SK-MEL-5 melanoma was > 100 µM in each case. The TGI in the test with T-47D breast, in the test on UACC-257 melanoma and with UO-31 renal was > 100 µM throughout.
